Reference: patent publication US20240092835A1, “NOVEL PEPTIDES CAPABLE OF ALTERING NK CELL ACTIVITY” (Massachusetts Institute of Technology, priority 2022, published 2024)

Legend:
NKG2A+/NKG2C− NK cells = assay: NK cell activation markers in NKG2A+/NKG2C- NK cells incubated with peptide and K562 expressing HLA-E (inhibition); assay type: cell-based, human; settings: for percentage of CCL3+ NK cells / percentage of CD107a+ NK cells / percentage of IFNG+ NK cells / percentage of TNF+ NK cells: NKG2A+/NKG2C- NK cells, K562/HLA-E
Summary of the method: (§1)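 HLA-E-expressing K562 cells incubated with peptides from human or human cytomegalovirus proteomes, then with NK cell subsets sorted by NKG2A/NKG2C status. Read-out is percent of cells positive for surface markers; a rise indicates activation, a fall inhibition.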

NKG2A−/NKG2C+ NK cells = assay: NK cell activation markers in NKG2A-/NKG2C+ NK cells incubated with peptide and K562 expressing HLA-E (activation); assay type: cell-based, human; settings: for percentage of CCL3+ NK cells / percentage of CD107+ NK cells / percentage of IFNG+ NK cells / percentage of TNF+ NK cells: NKG2A-/NKG2C+ NK cells, K562/HLA-E
Summary of the method: as §1

NKG2A−/NKG2C− NK cells = assay: NK cell activation markers in control NKG2A-/NKG2C- NK cells incubated with peptide and K562 expressing HLA-E; assay type: cell-based, human
Summary of the method: as §1

HLA-E = target: T1, HLA-E (Homo sapiens, UniProt P13747); assay: HLA-E surface stabilization assay with RMA-S/HLA-E cells; assay type: cell-based; settings: 30 μM peptide, 16 hours; for HLA-E surface expression stability (GeoMFI): anti-HLA-E antibody
T1 construct: expressed in transfected cells; host or cells: RMA-S/HLA-E cells (antigen processing-defective lymphoma cell line)
Experimental: HLA-E surface expression was assessed by measuring geometric mean fluorescence intensity (GeoMFI) in RMA-S cells following immunofluorescence staining with an anti-HLA-E antibody (Table 14). Increased GeoMFI was indicative of increased HLA-E surface expression stability following novel peptide exposures (FIG. 3).

[1] = K562 expressing HLA-E, CD107a, IFNG, TNF, CCL3

T1 sequence (P13747 22-358): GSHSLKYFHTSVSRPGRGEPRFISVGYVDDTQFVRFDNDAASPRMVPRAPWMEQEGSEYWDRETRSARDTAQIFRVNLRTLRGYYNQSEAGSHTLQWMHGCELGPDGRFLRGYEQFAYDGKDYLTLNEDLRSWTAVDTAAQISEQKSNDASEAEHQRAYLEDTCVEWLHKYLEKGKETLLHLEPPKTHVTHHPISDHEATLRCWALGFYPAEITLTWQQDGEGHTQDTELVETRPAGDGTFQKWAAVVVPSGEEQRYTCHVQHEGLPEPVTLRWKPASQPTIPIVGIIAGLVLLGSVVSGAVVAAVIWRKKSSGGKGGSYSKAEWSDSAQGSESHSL
T1 sequence (P61769 21-119 partner): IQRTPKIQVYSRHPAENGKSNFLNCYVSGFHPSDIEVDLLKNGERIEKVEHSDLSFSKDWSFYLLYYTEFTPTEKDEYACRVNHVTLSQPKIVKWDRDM

Sequence: FLPNRSLLF [human8, peptide SLC52A3 354-362 derived from the human proteome]
- effect on NKG2A+/NKG2C− NK cell inhibition (in words) (NKG2A+/NKG2C− NK cells; [1]): mild inhibitory effects
- percentage of CCL3+ NK cells (NKG2A+/NKG2C− NK cells; Trial 1): 39.5%
- percentage of CD107a+ NK cells (NKG2A+/NKG2C− NK cells; Trial 1): 19.1%
- percentage of IFNG+ NK cells (NKG2A+/NKG2C− NK cells; Trial 1): 5.56%
- percentage of TNF+ NK cells (NKG2A+/NKG2C− NK cells; Trial 1): 1.84%
- percentage of CCL3+ NK cells (NKG2A+/NKG2C− NK cells; Trial 2): 56%
- percentage of CD107a+ NK cells (NKG2A+/NKG2C− NK cells; Trial 2): 26.4%
- percentage of IFNG+ NK cells (NKG2A+/NKG2C− NK cells; Trial 2): 10.5%
- percentage of TNF+ NK cells (NKG2A+/NKG2C− NK cells; Trial 2): 4.8%
- percentage of CCL3+ NK cells (NKG2A+/NKG2C− NK cells; Trial 3): 38.2%
- percentage of CD107a+ NK cells (NKG2A+/NKG2C− NK cells; Trial 3): 27.5%
- percentage of IFNG+ NK cells (NKG2A+/NKG2C− NK cells; Trial 3): 14.7%
- percentage of TNF+ NK cells (NKG2A+/NKG2C− NK cells; Trial 3): 6.96%
- percentage of CCL3+ NK cells (NKG2A+/NKG2C− NK cells; Trial 4): 32.8%
- percentage of CD107a+ NK cells (NKG2A+/NKG2C− NK cells; Trial 4): 28.2%
- percentage of IFNG+ NK cells (NKG2A+/NKG2C− NK cells; Trial 4): 12.7%
- percentage of TNF+ NK cells (NKG2A+/NKG2C− NK cells; Trial 4): 7.59%
- percentage of CCL3+ NK cells (NKG2A+/NKG2C− NK cells; Trial 5): 33.3%
- percentage of CD107a+ NK cells (NKG2A+/NKG2C− NK cells; Trial 5): 17.7%
- percentage of IFNG+ NK cells (NKG2A+/NKG2C− NK cells; Trial 5): 7.1%
- percentage of TNF+ NK cells (NKG2A+/NKG2C− NK cells; Trial 5): 3.6%
- percentage of CCL3+ NK cells (NKG2A+/NKG2C− NK cells; Trial 6): 27.1%
- percentage of CD107a+ NK cells (NKG2A+/NKG2C− NK cells; Trial 6): 20%
- percentage of IFNG+ NK cells (NKG2A+/NKG2C− NK cells; Trial 6): 6.74%
- percentage of TNF+ NK cells (NKG2A+/NKG2C− NK cells; Trial 6): 4.07%
- effect on NKG2A−/NKG2C+ NK cell activation (in words) (NKG2A−/NKG2C+ NK cells; [1]): strong activating effects
- percentage of CCL3+ NK cells (NKG2A−/NKG2C+ NK cells; Trial 1): 75.5%
- percentage of CD107+ NK cells (NKG2A−/NKG2C+ NK cells; Trial 1): 73.7%
- percentage of IFNG+ NK cells (NKG2A−/NKG2C+ NK cells; Trial 1): 58.6%
- percentage of TNF+ NK cells (NKG2A−/NKG2C+ NK cells; Trial 1): 45.1%
- percentage of CCL3+ NK cells (NKG2A−/NKG2C+ NK cells; Trial 2): 89%
- percentage of CD107+ NK cells (NKG2A−/NKG2C+ NK cells; Trial 2): 82.1%
- percentage of IFNG+ NK cells (NKG2A−/NKG2C+ NK cells; Trial 2): 74.8%
- percentage of TNF+ NK cells (NKG2A−/NKG2C+ NK cells; Trial 2): 64%
- percentage of CCL3+ NK cells (NKG2A−/NKG2C+ NK cells; Trial 3): 84.1%
- percentage of CD107+ NK cells (NKG2A−/NKG2C+ NK cells; Trial 3): 84.3%
- percentage of IFNG+ NK cells (NKG2A−/NKG2C+ NK cells; Trial 3): 74.5%
- percentage of TNF+ NK cells (NKG2A−/NKG2C+ NK cells; Trial 3): 63.7%
- percentage of CCL3+ NK cells (NKG2A−/NKG2C+ NK cells; Trial 4): 65.3%
- percentage of CD107+ NK cells (NKG2A−/NKG2C+ NK cells; Trial 4): 64.8%
- percentage of IFNG+ NK cells (NKG2A−/NKG2C+ NK cells; Trial 4): 54%
- percentage of TNF+ NK cells (NKG2A−/NKG2C+ NK cells; Trial 4): 43.7%
- percentage of CCL3+ NK cells (NKG2A−/NKG2C+ NK cells; Trial 5): 74.6%
- percentage of CD107+ NK cells (NKG2A−/NKG2C+ NK cells; Trial 5): 70.7%
- percentage of IFNG+ NK cells (NKG2A−/NKG2C+ NK cells; Trial 5): 62.3%
- percentage of TNF+ NK cells (NKG2A−/NKG2C+ NK cells; Trial 5): 57.1%
- percentage of CCL3+ NK cells (NKG2A−/NKG2C+ NK cells; Trial 6): 57%
- percentage of CD107+ NK cells (NKG2A−/NKG2C+ NK cells; Trial 6): 53.1%
- percentage of IFNG+ NK cells (NKG2A−/NKG2C+ NK cells; Trial 6): 43.8%
- percentage of TNF+ NK cells (NKG2A−/NKG2C+ NK cells; Trial 6): 31.7%
- percentage CCL3+ NK cells (NKG2A−/NKG2C− NK cells; Trial 1): 33.5%
- percentage CD107+ NK cells (NKG2A−/NKG2C− NK cells; Trial 1): 27.7%
- percentage TNF+ NK cells (NKG2A−/NKG2C− NK cells; Trial 1): 4.82%
- percentage of IFNG+ NK cells (NKG2A−/NKG2C− NK cells; Trial 1): 14.7%
- percentage CCL3+ NK cells (NKG2A−/NKG2C− NK cells; Trial 2): 60.3%
- percentage CD107+ NK cells (NKG2A−/NKG2C− NK cells; Trial 2): 36.2%
- percentage TNF+ NK cells (NKG2A−/NKG2C− NK cells; Trial 2): 10.5%
- percentage of IFNG+ NK cells (NKG2A−/NKG2C− NK cells; Trial 2): 28.8%
- percentage CCL3+ NK cells (NKG2A−/NKG2C− NK cells; Trial 3): 52.4%
- percentage CD107+ NK cells (NKG2A−/NKG2C− NK cells; Trial 3): 47.3%
- percentage TNF+ NK cells (NKG2A−/NKG2C− NK cells; Trial 3): 16.5%
- percentage of IFNG+ NK cells (NKG2A−/NKG2C− NK cells; Trial 3): 38%
- percentage CCL3+ NK cells (NKG2A−/NKG2C− NK cells; Trial 4): 32%
- percentage CD107+ NK cells (NKG2A−/NKG2C− NK cells; Trial 4): 28.6%
- percentage TNF+ NK cells (NKG2A−/NKG2C− NK cells; Trial 4): 9.61%
- percentage of IFNG+ NK cells (NKG2A−/NKG2C− NK cells; Trial 4): 18.6%
- percentage CCL3+ NK cells (NKG2A−/NKG2C− NK cells; Trial 5): 29.2%
- percentage CD107+ NK cells (NKG2A−/NKG2C− NK cells; Trial 5): 20.2%
- percentage TNF+ NK cells (NKG2A−/NKG2C− NK cells; Trial 5): 6.07%
- percentage of IFNG+ NK cells (NKG2A−/NKG2C− NK cells; Trial 5): 14.2%
- percentage CCL3+ NK cells (NKG2A−/NKG2C− NK cells; Trial 6): 24.8%
- percentage CD107+ NK cells (NKG2A−/NKG2C− NK cells; Trial 6): 19.3%
- percentage TNF+ NK cells (NKG2A−/NKG2C− NK cells; Trial 6): 3.78%
- percentage of IFNG+ NK cells (NKG2A−/NKG2C− NK cells; Trial 6): 10.9%
- HLA-E surface expression stability (GeoMFI) (HLA-E; Trial 1): 1066 GeoMFI
- HLA-E surface expression stability (GeoMFI) (HLA-E; Trial 2): 813 GeoMFI
- HLA-E surface expression stability (GeoMFI) (HLA-E; Trial 3): 1049 GeoMFI
- HLA-E surface expression stability (GeoMFI) (HLA-E; Trial 4): 1654 GeoMFI
- HLA-E surface expression stabilization strength, approximate GeoMFI (HLA-E; approximate value): approximately 1×10^3 GeoMFI
